One assay has as its target Edema Factor (EF) (Bacillus anthracis, UniProt P40136). Description: biochemical. Type of assay: biochemical.
The next assay concerns the target T1, calmodulin (CaM) (Homo sapiens, UniProt P0DP23).
T1 construct: made in house
Description: CaM binding of peptide P233-254 probed by steady-state tryptophan anisotropy fluorescence. As to conditions: 10 μM TUAdiCl; for fluorescence anisotropy (r) of P233-254 peptide: peptide 2 μM, calcium present.

For another assay, the target named is preformed EF-CaM complex (Bacillus anthracis, UniProt P40136). Type of assay: biochemical.
Sequence of preformed EF-CaM complex (P40136 whole entry, looked up, one chain of several): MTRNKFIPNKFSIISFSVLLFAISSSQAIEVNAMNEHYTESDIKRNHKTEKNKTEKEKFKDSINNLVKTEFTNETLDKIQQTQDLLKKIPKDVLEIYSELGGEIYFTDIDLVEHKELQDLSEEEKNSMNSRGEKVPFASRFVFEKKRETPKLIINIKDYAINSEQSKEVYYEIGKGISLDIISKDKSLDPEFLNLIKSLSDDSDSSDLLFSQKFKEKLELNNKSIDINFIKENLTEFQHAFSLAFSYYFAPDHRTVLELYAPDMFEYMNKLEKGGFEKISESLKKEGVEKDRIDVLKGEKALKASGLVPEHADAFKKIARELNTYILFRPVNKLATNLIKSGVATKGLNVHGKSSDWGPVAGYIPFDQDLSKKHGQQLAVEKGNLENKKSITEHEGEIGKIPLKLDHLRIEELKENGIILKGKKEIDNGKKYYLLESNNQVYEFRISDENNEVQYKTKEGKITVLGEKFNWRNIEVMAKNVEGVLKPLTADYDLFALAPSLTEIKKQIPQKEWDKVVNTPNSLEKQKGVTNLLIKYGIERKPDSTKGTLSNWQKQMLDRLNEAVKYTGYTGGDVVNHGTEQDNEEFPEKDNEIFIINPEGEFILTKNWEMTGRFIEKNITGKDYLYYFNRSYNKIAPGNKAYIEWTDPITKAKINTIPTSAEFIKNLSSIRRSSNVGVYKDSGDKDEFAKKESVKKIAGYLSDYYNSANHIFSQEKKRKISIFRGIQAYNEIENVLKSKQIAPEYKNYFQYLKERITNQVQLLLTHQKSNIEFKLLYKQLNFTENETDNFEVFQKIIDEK
The target of assay [1] is T2, adenylate cyclase toxin (CyaA) (Bordetella pertussis, UniProt P0DKX7).
T2 construct: made in house
T2 sequence (P0DKX7 whole entry, looked up): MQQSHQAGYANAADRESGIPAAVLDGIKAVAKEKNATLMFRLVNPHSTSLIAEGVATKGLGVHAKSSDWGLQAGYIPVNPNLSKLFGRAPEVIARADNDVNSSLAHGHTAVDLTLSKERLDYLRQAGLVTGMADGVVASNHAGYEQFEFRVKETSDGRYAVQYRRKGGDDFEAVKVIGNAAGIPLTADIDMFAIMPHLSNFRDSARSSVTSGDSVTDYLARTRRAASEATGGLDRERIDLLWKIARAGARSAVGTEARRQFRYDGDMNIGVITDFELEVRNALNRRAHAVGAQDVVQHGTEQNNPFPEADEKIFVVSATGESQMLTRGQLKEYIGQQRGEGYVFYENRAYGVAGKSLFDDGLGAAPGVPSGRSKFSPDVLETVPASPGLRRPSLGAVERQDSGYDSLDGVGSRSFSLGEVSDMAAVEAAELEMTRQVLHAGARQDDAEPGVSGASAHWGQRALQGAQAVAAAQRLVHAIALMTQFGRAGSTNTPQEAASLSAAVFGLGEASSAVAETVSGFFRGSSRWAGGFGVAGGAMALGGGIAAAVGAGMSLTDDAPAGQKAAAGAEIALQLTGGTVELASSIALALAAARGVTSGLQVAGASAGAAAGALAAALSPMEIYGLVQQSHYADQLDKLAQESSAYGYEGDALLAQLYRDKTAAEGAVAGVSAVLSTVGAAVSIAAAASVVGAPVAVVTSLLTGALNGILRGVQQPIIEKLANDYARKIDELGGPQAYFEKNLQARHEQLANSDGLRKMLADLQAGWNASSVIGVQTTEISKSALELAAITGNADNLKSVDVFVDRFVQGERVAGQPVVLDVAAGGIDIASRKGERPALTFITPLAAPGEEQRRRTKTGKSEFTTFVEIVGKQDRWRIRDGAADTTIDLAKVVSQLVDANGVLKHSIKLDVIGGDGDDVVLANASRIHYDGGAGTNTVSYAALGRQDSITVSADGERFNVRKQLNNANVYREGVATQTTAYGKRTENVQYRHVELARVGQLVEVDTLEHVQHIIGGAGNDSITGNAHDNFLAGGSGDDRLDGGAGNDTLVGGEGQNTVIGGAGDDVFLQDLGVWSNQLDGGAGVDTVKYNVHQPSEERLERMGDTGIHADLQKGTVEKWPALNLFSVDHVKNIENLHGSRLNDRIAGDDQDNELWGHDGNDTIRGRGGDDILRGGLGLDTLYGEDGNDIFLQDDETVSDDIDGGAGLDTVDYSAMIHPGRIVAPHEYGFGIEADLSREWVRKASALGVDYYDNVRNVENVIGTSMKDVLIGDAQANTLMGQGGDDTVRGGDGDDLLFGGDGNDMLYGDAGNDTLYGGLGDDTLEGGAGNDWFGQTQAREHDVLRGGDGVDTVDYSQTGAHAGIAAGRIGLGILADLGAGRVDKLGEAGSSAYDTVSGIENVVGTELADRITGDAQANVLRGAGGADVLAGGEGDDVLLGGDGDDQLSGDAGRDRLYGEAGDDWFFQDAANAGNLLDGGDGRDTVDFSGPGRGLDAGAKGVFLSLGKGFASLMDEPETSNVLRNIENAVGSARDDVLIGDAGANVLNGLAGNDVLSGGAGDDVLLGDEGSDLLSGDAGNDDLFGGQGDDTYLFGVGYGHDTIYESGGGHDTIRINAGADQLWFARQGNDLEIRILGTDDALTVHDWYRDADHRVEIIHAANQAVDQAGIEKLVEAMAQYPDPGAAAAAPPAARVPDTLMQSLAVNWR
Description: Colorimetric adenylate cyclase enzymatic assay on CyaA. As to conditions: concentration not given. Type of assay: biochemical.

This note sets out measurements from patent US20110065782A1, “METHODS OF IDENTIFYING COMPOUNDS THAT INHIBIT THE ACTIVATION OF A BIOMOLECULE AND METHODS OF TREATMENT USING THE COMPOUNDS” (priority 2009, published 2011).

Sequence of Edema Factor (EF) (P40136 34-800 limits assumed): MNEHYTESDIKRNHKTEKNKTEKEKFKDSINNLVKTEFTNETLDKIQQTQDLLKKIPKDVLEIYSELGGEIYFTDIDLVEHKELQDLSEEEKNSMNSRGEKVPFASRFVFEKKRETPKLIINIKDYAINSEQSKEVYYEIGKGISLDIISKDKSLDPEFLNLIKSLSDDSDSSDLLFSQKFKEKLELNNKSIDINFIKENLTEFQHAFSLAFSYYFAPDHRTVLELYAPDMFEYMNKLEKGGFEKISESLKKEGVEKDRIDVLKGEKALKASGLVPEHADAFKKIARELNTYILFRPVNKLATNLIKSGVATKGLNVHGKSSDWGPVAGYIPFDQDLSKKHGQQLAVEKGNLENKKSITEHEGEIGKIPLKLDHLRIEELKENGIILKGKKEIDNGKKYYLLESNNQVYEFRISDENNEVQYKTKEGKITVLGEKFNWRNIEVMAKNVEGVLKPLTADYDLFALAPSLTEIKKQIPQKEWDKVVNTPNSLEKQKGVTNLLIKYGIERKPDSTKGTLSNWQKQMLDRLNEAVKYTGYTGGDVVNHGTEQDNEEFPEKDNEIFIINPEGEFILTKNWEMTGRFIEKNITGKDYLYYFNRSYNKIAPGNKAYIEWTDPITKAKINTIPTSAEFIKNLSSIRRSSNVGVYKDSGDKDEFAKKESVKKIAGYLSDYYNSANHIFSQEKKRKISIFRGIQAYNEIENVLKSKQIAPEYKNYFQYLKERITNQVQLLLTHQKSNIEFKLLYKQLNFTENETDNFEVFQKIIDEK

On to `O=C(Nc1ccc(Cl)c(Cl)c1)Nc1cc(-c2ccccc2)sc1C(=O)O` [TUAdiCl], for which, at Edema Factor (EF), the IC50 lay within 2 to 3 µM, the “concentration at which EF activity is inhibited” value is recorded as “less than 10 μM” and 100 µM produced 98 ± 6% inhibition. Moreover, the inhibition at 10 µM at Edema Factor (EF) (read-out: inhibition of EF enzymatic activity) was over 80%. Also, the “effect on the ability of CaM to associate with CaM-binding peptide from CyaA” value at calmodulin (CaM) is given as “no effect”. The “fluorescence anisotropy (r) of P233-254 peptide” value at calmodulin (CaM) (with equimolar CaM) came to 0.095. Further, at calmodulin (CaM) (without CaM), the “fluorescence anisotropy (r) of P233-254 peptide” value was 0.027. In addition, the “inhibition of enzymatic activity of the preformed EF-CaM complex” value against preformed EF-CaM complex is recorded as “significantly inhibit”.

In the case of `O=C(Nc1ccc(Cl)c(Cl)c1)Nc1cc(-c2ccccc2)sc1C(=O)O` [drawing 10], the “inhibition of CyaA activity” value in assay [1] is listed as “inhibit CyaA activity”.

In general, IC50 refers to the concentration that inhibits the measured activity by half. Usually inhibition stands for how much of the control response was suppressed.
